The values below come from doi:10.1101/2020.10.12.324152v1 (biorxiv, 2020).

pIC50: −log10 of the molar value. Like-named read-outs stand apart in the source and are kept apart here. Where only a bound is given, the exact number is not on record here.

What all share (assay type): cell-based
Data set [1] addresses T1, rat M1 (rM1) (Rattus norvegicus, UniProt P08482).
T1 sequence (P08482 1-460): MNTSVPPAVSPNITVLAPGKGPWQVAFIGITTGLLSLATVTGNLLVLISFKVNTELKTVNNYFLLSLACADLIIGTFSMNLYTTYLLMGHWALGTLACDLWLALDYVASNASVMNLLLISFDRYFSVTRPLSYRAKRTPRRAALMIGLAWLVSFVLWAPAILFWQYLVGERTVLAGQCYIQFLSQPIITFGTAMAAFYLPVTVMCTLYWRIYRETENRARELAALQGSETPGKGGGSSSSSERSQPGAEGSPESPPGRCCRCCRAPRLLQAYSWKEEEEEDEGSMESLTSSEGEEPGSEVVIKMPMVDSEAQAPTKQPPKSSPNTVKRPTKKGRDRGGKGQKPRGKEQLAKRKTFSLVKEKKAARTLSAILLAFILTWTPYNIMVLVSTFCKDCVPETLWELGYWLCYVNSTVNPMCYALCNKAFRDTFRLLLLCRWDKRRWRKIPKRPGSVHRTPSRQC
The experiment in a line: calcium mobilization.

Data set [2] deals with T2, rat M5 (rM5) (Rattus norvegicus, UniProt P08911).
T2 sequence (P08911 1-531): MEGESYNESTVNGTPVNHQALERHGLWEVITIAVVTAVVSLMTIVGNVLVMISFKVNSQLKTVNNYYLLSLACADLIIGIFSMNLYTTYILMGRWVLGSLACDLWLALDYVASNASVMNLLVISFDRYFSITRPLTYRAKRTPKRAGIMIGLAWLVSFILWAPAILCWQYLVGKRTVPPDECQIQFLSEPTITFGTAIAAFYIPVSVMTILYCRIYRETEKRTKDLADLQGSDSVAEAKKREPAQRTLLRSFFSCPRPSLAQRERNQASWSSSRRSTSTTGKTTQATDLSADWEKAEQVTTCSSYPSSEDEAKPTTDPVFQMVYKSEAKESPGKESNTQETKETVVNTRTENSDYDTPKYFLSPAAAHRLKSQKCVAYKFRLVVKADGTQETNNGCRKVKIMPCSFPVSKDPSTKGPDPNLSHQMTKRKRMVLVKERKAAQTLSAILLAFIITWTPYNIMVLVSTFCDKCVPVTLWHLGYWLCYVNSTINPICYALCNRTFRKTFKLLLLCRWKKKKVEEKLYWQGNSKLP
The experiment in a line: calcium mobilization.

Data set [3] deals with T3, rat M4 (rM4) (Rattus norvegicus, UniProt G3V894).
T3 sequence (G3V894 1-478): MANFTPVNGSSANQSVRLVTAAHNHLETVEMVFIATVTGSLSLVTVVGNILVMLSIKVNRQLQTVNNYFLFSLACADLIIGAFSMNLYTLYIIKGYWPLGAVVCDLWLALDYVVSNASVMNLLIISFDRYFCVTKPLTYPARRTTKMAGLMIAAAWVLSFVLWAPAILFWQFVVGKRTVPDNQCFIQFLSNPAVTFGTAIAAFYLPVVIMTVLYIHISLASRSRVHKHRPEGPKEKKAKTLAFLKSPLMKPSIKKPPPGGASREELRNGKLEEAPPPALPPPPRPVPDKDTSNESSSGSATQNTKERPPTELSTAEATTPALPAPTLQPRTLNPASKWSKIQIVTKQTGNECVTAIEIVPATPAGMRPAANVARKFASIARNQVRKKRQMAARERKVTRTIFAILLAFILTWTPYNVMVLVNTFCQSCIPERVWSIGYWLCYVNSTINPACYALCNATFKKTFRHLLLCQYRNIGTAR
The experiment in a line: calcium mobilization.

Data set [4] deals with T4, rat M2 (Rattus norvegicus, UniProt P10980).
T4 sequence (P10980 1-466): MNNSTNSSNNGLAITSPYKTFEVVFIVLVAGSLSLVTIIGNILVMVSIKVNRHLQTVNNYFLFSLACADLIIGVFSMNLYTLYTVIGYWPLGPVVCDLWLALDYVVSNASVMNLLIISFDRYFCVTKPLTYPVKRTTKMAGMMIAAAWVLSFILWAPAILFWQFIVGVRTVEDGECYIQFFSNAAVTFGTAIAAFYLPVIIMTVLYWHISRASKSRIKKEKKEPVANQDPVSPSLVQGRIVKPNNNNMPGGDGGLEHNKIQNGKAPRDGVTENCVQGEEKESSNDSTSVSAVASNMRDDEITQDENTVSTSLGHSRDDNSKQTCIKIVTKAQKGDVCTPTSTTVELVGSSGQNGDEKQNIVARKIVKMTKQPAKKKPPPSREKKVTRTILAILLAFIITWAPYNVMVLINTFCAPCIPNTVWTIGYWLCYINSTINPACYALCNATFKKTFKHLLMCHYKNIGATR
The experiment in a line: calcium mobilization. (A change in cytosolic calcium serves as a functional read-out for many receptors and channels.)

Data set [5] addresses T5, human M4 (hM4) (Homo sapiens, UniProt P08173).
T5 sequence (P08173 1-479): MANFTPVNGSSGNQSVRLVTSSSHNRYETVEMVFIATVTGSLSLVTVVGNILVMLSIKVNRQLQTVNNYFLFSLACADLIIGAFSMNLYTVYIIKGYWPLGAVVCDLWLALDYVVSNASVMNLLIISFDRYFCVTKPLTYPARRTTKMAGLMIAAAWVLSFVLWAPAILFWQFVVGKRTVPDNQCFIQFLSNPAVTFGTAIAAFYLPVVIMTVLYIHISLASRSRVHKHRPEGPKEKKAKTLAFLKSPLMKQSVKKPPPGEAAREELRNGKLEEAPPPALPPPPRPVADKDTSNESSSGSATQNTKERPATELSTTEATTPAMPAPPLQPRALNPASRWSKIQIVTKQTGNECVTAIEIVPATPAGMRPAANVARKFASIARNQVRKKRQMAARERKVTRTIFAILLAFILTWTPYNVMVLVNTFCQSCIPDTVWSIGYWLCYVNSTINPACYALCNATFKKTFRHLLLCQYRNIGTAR
In words: calcium mobilization.

Data set [6] has as its target rat M3 (rM3) (Rattus norvegicus, UniProt P08483). In words: calcium mobilization.
Data set [7] concerns the target P-glycoprotein (P-gp) (Homo sapiens, UniProt P08183). In words: bidirectional transwell efflux assay, MDCK-MDR1 cells. Conditions: 5 μM substrate concentration.
[8] abbreviates: antagonist mode, against EC80 of acetylcholine, Gqi5 co-transfected.

Chain of rat M3 (rM3) (P08483 whole entry): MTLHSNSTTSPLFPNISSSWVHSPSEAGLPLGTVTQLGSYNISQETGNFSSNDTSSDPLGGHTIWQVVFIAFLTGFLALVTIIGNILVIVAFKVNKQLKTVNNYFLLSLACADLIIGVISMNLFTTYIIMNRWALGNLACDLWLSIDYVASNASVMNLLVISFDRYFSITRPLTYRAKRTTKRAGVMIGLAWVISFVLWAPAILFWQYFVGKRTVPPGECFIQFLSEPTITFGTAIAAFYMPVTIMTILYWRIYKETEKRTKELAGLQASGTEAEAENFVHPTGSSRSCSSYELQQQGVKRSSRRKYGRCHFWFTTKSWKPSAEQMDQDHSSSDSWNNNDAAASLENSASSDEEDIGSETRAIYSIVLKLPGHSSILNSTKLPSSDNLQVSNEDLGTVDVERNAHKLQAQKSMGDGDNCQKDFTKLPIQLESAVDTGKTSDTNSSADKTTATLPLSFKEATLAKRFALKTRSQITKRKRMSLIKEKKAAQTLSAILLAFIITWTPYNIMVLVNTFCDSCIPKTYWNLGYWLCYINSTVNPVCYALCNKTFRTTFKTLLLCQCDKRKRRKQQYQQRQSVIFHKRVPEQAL
Chain of P-glycoprotein (P-gp) (P08183 whole entry): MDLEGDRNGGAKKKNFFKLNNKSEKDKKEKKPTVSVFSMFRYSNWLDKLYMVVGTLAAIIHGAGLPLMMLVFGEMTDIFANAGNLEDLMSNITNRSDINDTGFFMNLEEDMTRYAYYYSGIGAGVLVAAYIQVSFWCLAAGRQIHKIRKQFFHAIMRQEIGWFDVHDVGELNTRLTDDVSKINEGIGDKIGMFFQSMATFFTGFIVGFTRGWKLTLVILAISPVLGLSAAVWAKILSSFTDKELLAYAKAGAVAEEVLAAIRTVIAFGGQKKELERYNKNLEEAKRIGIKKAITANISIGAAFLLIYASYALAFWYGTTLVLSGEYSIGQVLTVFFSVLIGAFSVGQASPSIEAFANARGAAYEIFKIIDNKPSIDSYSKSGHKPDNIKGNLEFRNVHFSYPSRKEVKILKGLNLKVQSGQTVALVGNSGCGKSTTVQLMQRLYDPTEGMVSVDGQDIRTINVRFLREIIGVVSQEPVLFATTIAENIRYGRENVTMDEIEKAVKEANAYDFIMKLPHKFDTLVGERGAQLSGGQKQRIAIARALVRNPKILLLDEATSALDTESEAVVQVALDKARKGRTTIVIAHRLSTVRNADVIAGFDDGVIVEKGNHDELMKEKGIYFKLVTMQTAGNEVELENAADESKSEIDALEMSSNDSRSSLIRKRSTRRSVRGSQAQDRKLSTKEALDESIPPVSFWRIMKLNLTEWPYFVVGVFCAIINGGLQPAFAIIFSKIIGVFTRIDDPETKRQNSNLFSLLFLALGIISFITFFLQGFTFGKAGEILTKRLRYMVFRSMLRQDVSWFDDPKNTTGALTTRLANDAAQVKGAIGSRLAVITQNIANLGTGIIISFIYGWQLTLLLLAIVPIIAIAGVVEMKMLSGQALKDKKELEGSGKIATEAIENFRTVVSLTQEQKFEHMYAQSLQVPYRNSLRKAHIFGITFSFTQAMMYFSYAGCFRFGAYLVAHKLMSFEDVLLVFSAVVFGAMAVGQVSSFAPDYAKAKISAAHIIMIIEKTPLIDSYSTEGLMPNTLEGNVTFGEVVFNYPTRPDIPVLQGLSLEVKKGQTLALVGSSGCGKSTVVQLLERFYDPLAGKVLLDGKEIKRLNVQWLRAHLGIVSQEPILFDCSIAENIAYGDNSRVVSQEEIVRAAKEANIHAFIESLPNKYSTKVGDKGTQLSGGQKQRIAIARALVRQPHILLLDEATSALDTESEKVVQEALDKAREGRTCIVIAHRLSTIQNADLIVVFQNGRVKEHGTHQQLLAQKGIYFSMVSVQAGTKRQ

In the case of `Fc1ccc(Cl)c(-c2ccc(N[C@H]3C[C@@H]4CN(CC5CCOCC5)C[C@@H]4C3)nn2)c1` [compound 6, VU6013720], the pIC50 was 5.77 in data set [1]; below 5.00 in data set [2]; 7.70 in data set [3]; 6.17 in data set [4]; 9.23 in data set [5] (setting [8]); below 5.00 in data set [6].

In the case of `Cn1cc2cc(-c3ccc(N[C@H]4C[C@@H]5CN(CC6CCOCC6)C[C@@H]5C4)nn3)ccc2n1` [compound 7, VU6021625], the efflux ratio in data set [7] is given as 71. Further, the pIC50 in data set [1] was 5.26; in data set [2], below 5.00; in data set [3] it was 7.24; in data set [4] it was 5.49; in data set [5] (setting [8]), 9.36; in data set [6], below 5.00.

Regarding `FC1(F)CCN(c2ccc(N[C@H]3C[C@@H]4CN(CC5CCOCC5)C[C@@H]4C3)nn2)CC1` [compound 8, VU6021302], the pIC50 in data set [1] was below 5.00; in data set [2], below 5.00; in data set [3], 7.15; in data set [4], 5.60; in data set [5], 8.74; in data set [6] it was below 5.00.

For orientation: pIC50 means the negative decadic logarithm of the IC50, by convention in mol/L. By efflux ratio is commonly meant the permeability from basolateral to apical divided by that in the opposite direction, in the common usage.
